In patent publication US8871794B2, “Small-molecule agonists for type-2 orexin receptor” (Board of Regents, The University of Texas System, priority 2008, dated 2014):
Where no end group is shown, it is not given here.

What was measured:
wild type C57BL/6J mice = assay: Emergence from isoflurane anesthesia (return of righting reflex); format: in vivo, mouse
Protocol: Loss and Return of Righting Reflex. Induction and emergence from isoflurane or sevoflurane were defined behaviorally as the respective loss and return of the righting reflex and were evaluated as follows. Wild-type C57BL/6J male mice aged 8-14 weeks (Jackson Laboratories). were placed in cylindrical gas-tight, controlled-environment chambers arrayed in parallel (35). After 90 min of habituation with 100% oxygen each day on two successive days, anesthesia was induced with a Drager model 19.1 isoflurane or sevoflurane vaporizer by using 8-12 stepwise incremental increases in the concentration of anesthetic gas dissolved in 100% oxygen. Anesthetic gas concentrations were determined in triplicate during the last 2 min at each step (35). Initial volatile anesthetic concentrations were 0.44% isoflurane or 0.96% sevoflurane. After 15 min at each concentration to allow for equilibration of the mouse with the anesthetic vapors, the concentration of volatile anesthetic was increased by 6±3% of the preceding value. […]
Pharmacologic Inhibition of Orexin Signaling and Righting Reflex Studies. To determine the effect of the orexin-1R antagonist, SB-334867-A (Tocris Bioscience), on induction of anesthesia, 24 C57BL/6J mice were evaluated for both the concentration at which the righting reflex was lost as well as a separate experiment to measure the latency to loss of righting. […]

wild-type mice = assay: Diet-induced obesity in mice; format: in vivo, mouse
From the text: To examine whether enhanced OX2R signaling causes resistance to diet-induced obesity, an OX2R selective agonist, [Ala11, D-Leu15] Orexin-B (Akanmu and Honma, 2005 Brain. Res. 1048. 138-145.; Asahi et al., 2003 Bioorg. Med. Chem. Lett. 13.
111-113) was continuously infused in the lateral ventricles of wild-type mice for 14 days. […] There was no effect of the OX2R selective agonist for OX2R-deficient mice on a high fat diet (n=4, weight gain 3.33±0.61 g), verifying the selectivity of the agonist in vivo.

[1] = tested on: orexin/ataxin-3 mice and wild-type controls; assay: EEG/EMG sleep/wake recording in orexin/ataxin-3 and wild-type mice; format: in vivo, mouse
From the text: (§1) Aspects of this example, including more detailed descriptions of the production of the CAG/orexin-transgenic mice, the cataplexy testing, cannulation (i.c.v.) and orexin administration and EEG/EMG recordings were published in Mieda et al., PNAS USA Mar. 30, 2004; 101(13):4649-54.
(§2) We administered orexin-A, a nonselective agonist for orexin receptor type 1 (OX1R) and OX2R.
To quantify the effects of orexin-A administration on sleep/wake status, we recorded EEG/EMG in orexin/ataxin-3 mice, as well as wild-type controls. […] Nevertheless, some pharmacological effects of exogenous orexins have been reported to vary with time of day (Zeitgeber-dependent effects). We therefore examined the effects of orexin-A administrations in mice both at the onset of the dark (active) phase as well as during the light (resting) phase, again by using a randomized crossover design.

[2] = tested on: orexin/ataxin-3-transgenic mice; assay: Cataplexy testing in orexin/ataxin-3-transgenic mice; format: in vivo; conditions: 3 nmol per mouse i.c.v., first 3 h after injection, vs vehicle
From the text: as §1, §2
We examined whether i.c.v. orexin-A administration suppresses cataplectic arrests in orexin/ataxin-3-transgenic mice. By using a randomized crossover design, we administered vehicle and orexin-A to all mice during separate experimental sessions. […] Thus, i.c.v. administration of orexin-A is sufficient to acutely suppress behavioral arrests in this model of narcolepsy.

[3] = 0.5 nmol/d infused in lateral ventricles, 14 days, wild-type mice
[4] = 3 nmol i.c.v., regardless of genotype and time of administration

Cc1nc2ccc(NC(=O)Nc3ccnc4cccnc34)cc2o1.Cl [SB-334867-A]
emergence from isoflurane anesthesia, dose dependence (wild type C57BL/6J mice; 5 mg/kg or 20 mg/kg i.p., 1.25% isoflurane): dose-dependent delay in emergence | emergence from isoflurane anesthesia (wild type C57BL/6J mice; 20 mg/kg i.p. (F2,45=8.80, P<0.001)): significantly delayed emergence

[Ala11, D-Leu15] Orexin-B
weight gain on a high fat diet (wild-type mice; [3]): suppressed weight gain | weight homeostasis on a low fat diet (wild-type mice; [3]): without altering weight homeostasis | fat mass gain vs vehicle on a high fat diet (wild-type mice; 14 days, wild-type mice, high fat diet): gained significantly less fat mass | fat mass gain on a low fat diet (wild-type mice; 14 days, wild-type mice, low fat diet): no effect was observed | effect for OX2R-deficient mice on a high fat diet (wild-type mice; OX2R-deficient mice, high fat diet): no effect | weight gain (wild-type mice; OX2R-deficient mice, high fat diet, n=4): 3.33 ± 0.61 g | change in LEPR, POMC, SOCS3, STAT3 transcripts (wild-type mice; after 14 days): no significant change | hypothalamic mRNA expression of orexigenic factors NPY and AGRP (wild-type mice; after 14 days, high fat diet compared to low fat diet): reduced hypothalamic mRNA expression | food intake (wild-type mice; high fat vs low fat diet): reduced food intake only on a high fat but not on low fat diet

orexin-A: a nonselective agonist for orexin receptor type 1 (OX1R) and OX2R (QPLPDCCRQKTCSCRLYELLHGAGNHAAGILTL; ends and bridges not checked; cysteine pairing not given here; UniProt O43612 34-66, looked up)
non-REM sleep in narcoleptic animals compared with wild-type ([1]; 3 nmol i.c.v., 3-h period): significantly greater suppressions of non-REM sleep | wakefulness in orexin/ataxin-3-transgenic mice compared with wild-type mice ([1]; 3 nmol i.c.v., 3-h period): significantly greater amounts of wakefulness | elevation of REM sleep in narcoleptic mice ([1]; 3 nmol i.c.v., dark phase): effectively suppressed this elevation of REM sleep | non-REM and REM sleep [1, 4]: suppressed both non-REM and REM sleep | wakefulness [1, 4]: strikingly increased wakefulness | REM sleep suppression, narcoleptic mice vs wild-type controls ([1]; 3 nmol i.c.v., regardless of the time of administration): more effective at suppressing REM sleep in narcoleptic mice than in wild-type controls | effects in knockout mice lacking both OX1R and OX2R genes ([1]; 3 nmol per mouse i.c.v.): no detectable effects | cumulative wakefulness and cumulative sleep in narcoleptic animals ([1]; 24 h after a nocturnal administration): statistically significant increase of cumulative wakefulness and a decrease of cumulative sleep | immediate rebounds of sleep ([1]; after dark-phase or light-phase administration): no immediate rebounds of sleep were observed | frequency of cataplectic arrests [2]: significantly reduced | overall time spent in cataplexy [2]: significantly reduced
